Measurements taken from patent US20230250096A1, “SUBSTITUTED PHENYL-1H-PYRROLO[2,3-c] PYRIDINE DERIVATIVES” (Janssen Pharmaceutica NV, priority 2021, published 2023).

Experiments:
[1] = molecular target: T1, menin/MLL (terbium chelate-labeled menin, FITC-MBM1 peptide) (Homo sapiens, UniProt O00255, T541A); test: Menin/MLL homogenous time-resolved fluorescence (HTRF) assay; format: binding; details: 30 min incubation
T1 construct: Menin (a.a 1-610-6xhis tag, 2.3 mg/mL in 20 mM Hepes)
T1 sequence (O00255 with tags, fused parts or gaps T541A): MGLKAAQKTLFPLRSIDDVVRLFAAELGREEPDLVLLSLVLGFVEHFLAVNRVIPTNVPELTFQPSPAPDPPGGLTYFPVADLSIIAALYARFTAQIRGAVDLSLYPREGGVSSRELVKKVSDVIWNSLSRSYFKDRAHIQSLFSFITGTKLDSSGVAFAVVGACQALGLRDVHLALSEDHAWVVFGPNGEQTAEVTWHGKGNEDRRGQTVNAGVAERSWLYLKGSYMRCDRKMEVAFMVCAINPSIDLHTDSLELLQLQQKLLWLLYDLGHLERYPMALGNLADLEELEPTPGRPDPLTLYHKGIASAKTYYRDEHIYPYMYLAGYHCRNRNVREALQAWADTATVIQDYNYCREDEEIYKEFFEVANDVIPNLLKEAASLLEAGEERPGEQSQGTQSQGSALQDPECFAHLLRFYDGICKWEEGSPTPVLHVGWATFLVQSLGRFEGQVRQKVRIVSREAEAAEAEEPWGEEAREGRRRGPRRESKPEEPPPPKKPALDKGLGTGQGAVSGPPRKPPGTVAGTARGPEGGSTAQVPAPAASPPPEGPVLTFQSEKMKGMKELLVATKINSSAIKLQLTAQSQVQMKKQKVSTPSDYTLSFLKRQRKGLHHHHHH
Method: 1) Menin/MLL Homogenous Time-Resolved Fluorescence (HTRF) Assay
To an untreated, white 384-well microtiter plate was added 40 nL 200× test compound in DMSO and 4 μL 2× terbium chelate-labeled menin (vide infra for preparation) in assay buffer (40 mM Tris HCl, pH 7.5, 50 mM NaCl. 1 mM DTT (dithiothreitol) and 0.05% Pluronic F-127). After incubation of test compound and terbium chelate-labeled menin for 30 min at ambient temperature, 4 μL 2×FITC-MBM1 peptide (FITC-β-alanine-[…]-NH2) (“FITC” means fluorescein isothiocyanate) in assay buffer was added, the microtiter plate centrifuged at 1000 rpm for 1 min and the assay mixtures incubated for 15 min at ambient temperature. The relative amount of menin FITC-MBM1 complex present in an assay mixture is determined by measuring the homogenous time-resolved fluorescence (HTRF) of the terbium/FITC donor/acceptor fluorphore pair using an EnVision microplate reader (ex. 337 nm/terbium em. 490 nm/FITC em. 520 nm) at ambient temperature. The degree of fluorescence resonance energy transfer (the HTRF value) is expressed as the ratio of the fluorescence emission intensities of the FITC and terbium fluorophores (F^em520 nm/F^em490 nm). The final concentrations of reagents in the binding assay are […] terbium chelate-labeled menin, 75 nM FITC-MBM1 peptide and 0.5% DMSO in assay buffer. Dose-response titrations of test compounds are conducted using an 11 point, four-fold serial dilution scheme, starting typically at 10 μM.
Compound potencies were determined by first calculating % inhibition at each compound concentration according to equation 1:
% inhibition=((HC−LC)−(HTRF^compound−LC))/(HC−LC))*100 (Eqn 1)
Where LC and HC are the HTRF values of the assay in the presence or absence of a saturating concentration of a compound that competes with FITC-MBM1 for binding to menin, and HTRF^compound is the measured HTRF value in the presence of the test compound. HC and LC HTRF values represent an average of at least 10 replicates per plate.
% inhibition=Bottom+(Top−Bottom)/(1+10^((log/C50−log[cmpd])*h)) (Eqn 2)
Where Bottom and Top are the lower and upper asymptotes of the dose-response curve, respectively, IC50 is the concentration of compound that yields 50% inhibition of signal and h is the Hill coefficient.
Preparation of Terbium cryptate labeling of Menin: Menin (a.a 1-610-6xhis tag, 2.3 mg/mL in 20 mM Hepes (2-[4-(2-Hydroxyethyl)-1-piperazinyl]ethane sulfonic acid), 80 mM NaCl, 5 mM DTT (Dithiothreitol), pH 7.5) was labeled with terbium cryptate as follows. 200 μg of Menin was buffer exchanged into 1×Hepes buffer. 6.67 μM Menin was incubated with 8-fold molar excess NHS (N-hydroxysuccinimide)-terbium cryptate for 40 minutes at room temperature. Half of the labeled protein was purified away from free label by running the reaction over a NAP5 column with elution buffer (0.1M Hepes, pH 7+0.1% BSA (bovine serum albumin)). The other half was eluted with 0.1 M phosphate buffered saline (PBS), pH7. 400 μl of eluent was collected for each, aliquoted and frozen at −80° C. The final concentration of terbium-labeled Menin protein was 115 μg/mL in Hepes buffer and 85 μg/mL in PBS buffer, respectively.

MEIS1 mRNA expression = MEIS1 mRNA expression assay (Quantigene Singleplex) in MOLM14 cells; format: cell-based, human; details: 48 hours incubation
Method: 2b) MEIS1 mRNA Expression Assay
MEIS1 mRNA expression upon treatment of compound was examined by Quantigene Singleplex assay (Thermo Fisher Scientific). This technology allows for direct quantification of mRNA targets using probes hybridizing to defined target sequences of interest and the signal is detected using a Multimode plate reader Envision (PerkinElmer). The MOLM14 cell line was used for this experiment. Cells were plated in 96-well plates at 3,750 cells/well in the presence of increasing concentrations of compounds. After incubation of 48 hours with compounds, cells were lysed in lysis buffer and incubated for 45 minutes at 55° C. Cell lysates were mixed with human MEIS specific capture probe or human RPL28 (Ribosomal Protein L28) specific probe as a normalization control, as well as blocking probes. Cell lysates were then transferred to the custom assay hybridization plate (Thermo Fisher Scientific) and incubated for 18 to 22 hours at 55° C. Subsequently, plates were washed to remove unbound materials followed by sequential addition of preamplifiers, amplifiers, and label probe. Signals (═gene counts) were measured with a Multimode plate reader Envision. IC50S were calculated by dose-response modelling using appropriate software. For all non-housekeeper genes response equal counts corrected for background and relative expression. For each sample, each test gene signal (background subtracted) was divided by the normalization gene signal (RPL28: background subtracted). Fold changes were calculated by dividing the normalized values for the treated samples by the normalized values for the DMSO treated sample. Fold changes of each target gene were used for the calculation of IC50S.

With `Cc1cncc2c1c(C[C@@H]1CCN(CC3CCOCC3)C1)cn2-c1ccc(F)cc1C(=O)N(C[C@@H](C)O)C(C)C` (single isomer, unassigned) [Compound 365a] the IC50 [1] was 0.102 nM and the IC50 (MEIS1 mRNA expression; Homo sapiens, MOLM-14, 48 h) was 35 nM.

Work on `CC(=O)N1CCC(CN2CC(Cc3cn(-c4ccc(F)cc4C(=O)N(C)C(C)C)c4cncc(C)c34)C2)C1` (stereo not drawn) [Compound 94] yielded an IC50 [1] of 0.079 nM and an IC50 (MEIS1 mRNA expression; Homo sapiens, MOLM-14, 48 h) of 309 nM.

`CC(=O)N[C@H]1CC[C@H](CN2CC[C@H](Cc3cn(-c4ccc(F)cc4C(=O)N(C)C(C)C)c4cncc(C)c34)C2)CC1` (single isomer, unassigned) [Compound 73] was tested, and the IC50 [1] was 0.057 nM and the IC50 (MEIS1 mRNA expression; Homo sapiens, MOLM-14, 48 h) was 101 nM.

`CC(=O)N1CCC(N2CC[C@@H](Cc3cn(-c4ccc(F)cc4C(=O)N(C)C(C)C)c4cncc(C)c34)C2)C(C)(C)C1` (mixture of isomers) [Compound 234] was tested, and the IC50 [1] was ~0.068 nM and the IC50 (MEIS1 mRNA expression; Homo sapiens, MOLM-14, 48 h) was 18 nM.

Work on `CC(=O)N1CCC(CN2CC[C@@H](Cc3cn(-c4ccc(F)cc4C(=O)N(C[C@@H](C)O)C(C)C)c4cncc(C)c34)C2)CC1` (single isomer, unassigned) [Compound 320a] yielded an IC50 [1] of 0.189 nM and an IC50 (MEIS1 mRNA expression; Homo sapiens, MOLM-14, 48 h) of 24 nM.

For `Cc1cncc2c1c(C=C1CCN(CC3CCOCC3)C1)cn2-c1ccc(F)cc1C(=O)N(C)C(C)C` (single isomer, unassigned) [Compound 523a], the IC50 [1] was 0.376 nM and the IC50 (MEIS1 mRNA expression) was > 1000 nM.

In the case of `CC(=O)N1CCC(CN2C[C@H](Cc3cn(-c4ccc(F)cc4C(=O)N(C)C(C)C)c4cncc(C)c34)C[C@H]2C)CC1` [Compound 130], the IC50 [1] is reported as 1.2 nM and the IC50 (MEIS1 mRNA expression; Homo sapiens, MOLM-14, 48 h) is reported as 314 nM.

Molecule `Cc1cncc2c1c(CC1CN(CC(=O)N3CCCCC3)C1)cn2-c1ccc(F)cc1C(=O)N(C)C(C)C` [Compound 98] has an IC50 [1] of 0.747 nM and an IC50 (MEIS1 mRNA expression; Homo sapiens, MOLM-14, 48 h) of ~535 nM.

`CC(=O)N1CCC(CN2CC[C@@H](Cc3cn(-c4ccc(F)cc4[S@]4(=O)=NCCC4)c4cncc(C)c34)C2)CC1` (single isomer, unassigned) [Compound 214b] was tested, and the IC50 [1] was 11.7 nM and the IC50 (MEIS1 mRNA expression; Homo sapiens, MOLM-14, 48 h) was ~7280 nM.

With `COC(=O)N1CCC(CN2CC[C@@H](Cc3cn(-c4ccc(F)cc4C(=O)N(C[C@H](C)O)C(C)C)c4cncc(C)c34)C2)CC1` [Compound 335] the IC50 [1] was 0.193 nM and the IC50 (MEIS1 mRNA expression; Homo sapiens, MOLM-14, 48 h) was 18 nM.

`Cc1cncc2c1c(CC1CCN(C(CCC3OCCO3)C(C)C)C1)cn2-c1ccc(F)cc1C(=O)N(C)C(C)C` (single isomer, unassigned) [Compound 366] was tested, and the IC50 [1] was 0.067 nM and the IC50 (MEIS1 mRNA expression; Homo sapiens, MOLM-14, 48 h) was ~319 nM.

`CC[C@@H]([C@H]1C[C@@H](N2C[C@H]3CN(C(C)=O)C[C@@H]3C2)C1)N1CC[C@H](Cc2cn(-c3ccc(F)cc3C(=O)N(C)C(C)C)c3cncc(Cl)c23)C1` (single isomer, unassigned) [Compound 27c] showed an IC50 [1] of 0.038 nM and an IC50 (MEIS1 mRNA expression; Homo sapiens, MOLM-14, 48 h) of 40 nM.

`CC(=O)N1CC2CC(CN3CC(Cc4cn(-c5ccc(F)cc5C(=O)N(C)C(C)C)c5cncc(C)c45)C3)CC(C2)C1` (stereo not drawn) [Compound 300] gave an IC50 [1] of 0.116 nM and an IC50 (MEIS1 mRNA expression; Homo sapiens, MOLM-14, 48 h) of 55 nM.

`CCC([C@H]1C[C@@H](N2C[C@H]3CN(C(C)=O)C[C@@H]3C2)C1)N1CC[C@@H](Cc2cn(-c3ccc(F)cc3C(=O)N(C)C(C)C)c3cncc(C)c23)C1` (mixture of isomers) [Compound 22] showed an IC50 [1] of 0.024 nM and an IC50 (MEIS1 mRNA expression; Homo sapiens, MOLM-14, 48 h) of ~11 nM.

Molecule `Cc1cncc2c1c(C[C@@H]1CCN(CC3CCOCC3)C1)cn2-c1ccc(F)cc1C(=O)N1CCC[C@@H]1CO` [Compound 361] has an IC50 [1] of 0.149 nM.

`Cc1cncc2c1c(C[C@H]1CN[C@@H](C)C1)cn2-c1ccc(F)cc1C(=O)N(C)C(C)C` [Compound 505] was tested, and the IC50 [1] was 3.11 nM.

For `Cc1cncc2c1c(CC1CCNC1C)cn2-c1ccc(F)cc1C(=O)N(C)C(C)C` (stereo not drawn) [Compound 507], the IC50 [1] was 6.6 nM.

`CC(=O)N1CCC(N2CC[C@H](Cc3cn(-c4ccc(F)cc4C(=O)N(C)C(C)C)c4cncc(C)c34)C2)CC1` [Compound 156] showed an IC50 [1] of 0.042 nM.

`CC(=O)N1CCC(N2CC(Cc3cn(-c4ccc(F)cc4C(=O)N(C)C(C)C)c4cncc(C)c34)C2)C[C@H]1C` (single isomer, unassigned) [Compound 292a] was tested, and the IC50 [1] was 0.132 nM.

Work on `CC(=O)N1CC2CC(N3CC(Cc4cn(-c5ccc(F)cc5C(=O)N(C)C(C)C)c5cncc(C)c45)C3)CC2C1` (stereo not drawn) [Compound 294b] yielded an IC50 [1] of 0.077 nM.

`Cc1cncc2c1c(CC1CCNC1C)cn2-c1ccc(F)cc1C(=O)N(C)C(C)C` (stereo not drawn) [Compound 509] was tested, and the IC50 [1] was 4.53 nM.

`Cc1cncc2c1c(CC1CCNC1C)cn2-c1ccc(F)cc1C(=O)N(C)C(C)C` (stereo not drawn) [Compound 508] was tested, and the IC50 [1] was 3.68 nM.

`Cc1cncc2c1c(CC1CCNC1C)cn2-c1ccc(F)cc1C(=O)N(C)C(C)C` (stereo not drawn) [Compound 510] gave an IC50 [1] of 2.95 nM.

In the case of `Cc1cncc2c1c(CC1CN([C@@H]3CCN4C(=O)CCC4C3)C1)cn2-c1ccc(F)cc1C(=O)N(C)C(C)C` (single isomer, unassigned) [Compound 309a], the IC50 [1] is reported as 1.3 nM.

`COC(=O)c1cc(F)ccc1-n1cc(C[C@@H]2CCN(CC3CCOCC3)C2)c2c(C)cncc21` [Compound 534] gave an IC50 [1] of 0.556 nM.

Work on `Cc1cncc2c1c(C[C@H]1CN[C@H](C)C1)cn2-c1ccc(F)cc1C(=O)N(C)C(C)C` [Compound 503] yielded an IC50 [1] of 10.5 nM.

`CNC(=O)c1cncc(N2CCC(N3CC(Cc4cn(-c5ccc(OC)cc5C(=O)N(C)C(C)C)c5cncc(C)c45)C3)CC2)n1` [Compound 76] showed an IC50 [1] of 0.304 nM.

`Cc1cncc2c1c(C[C@@H]1CN[C@@H](C)C1)cn2-c1ccc(F)cc1C(=O)N(C)C(C)C` [Compound 522] showed an IC50 [1] of 10.6 nM.

`CC(=O)N1CCC(CN2CC[C@@H](Cc3cn(-c4ccc(F)cc4S4(=O)=NCCC4)c4cncc(C)c34)C2)CC1` (mixture of isomers) [Compound 214] was tested, and the IC50 (MEIS1 mRNA expression; Homo sapiens, MOLM-14, 48 h) was > 1000 nM.

`COC(=O)c1cc(F)ccc1-n1cc(C[C@@H]2CCN(CC3CCNC(=O)CC3)C2)c2c(C)cncc21` (stereo partly drawn) [Compound 533] was tested, and the IC50 [1] was 0.808 nM.

Work on `COC(=O)c1cc(F)ccc1-n1cc(C[C@@H]2CCN(CC3CCN(C(C)=O)CC3)C2)c2c(C)cncc21` [Compound 528] yielded an IC50 [1] of 0.514 nM.
